Reference: ChEMBL document CHEMBL1201862, “PubChem BioAssay data set” (2004)
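Assay format: 96-well plates, 48-hour exposure. GI50 marks 50% less growth.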 Active and inactive are the calls of the source. Cut-off read from the data, not from the text of the source: active = GI50 up to about 1.1 µM and inactive = higher.

Key:
Assay in all cases: NCI tumour cell line growth inhibition, 48 h
COLO 205 = test system: COLO 205
NCI-H522 = test system: NCI-H522
EKVX = test system: EKVX
HCC 2998 = test system: HCC 2998
NCI-H23 = test system: NCI-H23
SK-MEL-2 = test system: SK-MEL-2
SK-MEL-5 = test system: SK-MEL-5
PC-3 = test system: PC-3
786-0 = test system: 786-0
SW-620 = test system: SW-620
HOP-92 = test system: HOP-92
LOX IMVI = test system: LOX IMVI
TK-10 = test system: TK-10
OVCAR-3 = test system: OVCAR-3
U-251 = test system: U-251
CAKI-1 = test system: CAKI-1
HL-60 = test system: HL-60
NCI-H460 = test system: NCI-H460
UACC-257 = test system: UACC-257
SK-MEL-28 = test system: SK-MEL-28
SF-539 = test system: SF-539
UO-31 = test system: UO-31
RPMI-8226 = test system: RPMI-8226
ACHN = test system: ACHN
SK-OV-3 = test system: SK-OV-3
SR = test system: SR
HOP-62 = test system: HOP-62
NCI-H226 = test system: NCI-H226
OVCAR-5 = test system: OVCAR-5
HT-29 = test system: HT-29
K562 = test system: K562
MDA-MB-435 = test system: MDA-MB-435
OVCAR-8 = test system: OVCAR-8
MDA-MB-231 = test system: MDA-MB-231
Malme-3M = test system: Malme-3M
CCRF-CEM = test system: CCRF-CEM
M14 = test system: M14
SN12C = test system: SN12C
T47D = test system: T47D
OVCAR-4 = test system: OVCAR-4
A549 = test system: A549
MOLT-4 = test system: MOLT-4
A498 = test system: A498
SF-295 = test system: SF-295
SF-268 = test system: SF-268
DU-145 = test system: DU-145
MCF7 = test system: MCF7
SNB-19 = test system: SNB-19
IGROV-1 = test system: IGROV-1
NCI/ADR-RES = test system: NCI/ADR-RES
HCT-15 = test system: HCT-15
UACC-62 = test system: UACC-62
RXF 393 = test system: RXF 393
MDA-N = test system: MDA-N
BT-549 = test system: BT-549
SNB-75 = test system: SNB-75
KM12 = test system: KM12
HCT-116 = test system: HCT-116
Hs-578T = test system: Hs-578T

COC(=O)C(Cc1c[nH]c2ccccc12)NC1=Nc2ccncc2S(=O)(=O)N1c1ccccc1 (stereo not drawn)
GI50 (COLO 205): 17.6 µM (inactive) | GI50 (NCI-H522): 28 µM (inactive) | GI50 (EKVX): > 100 µM (inactive) | GI50 (HCC 2998): 27.5 µM (inactive) | GI50 (NCI-H23): 41.5 µM (inactive) | GI50 (SK-MEL-2): 38.1 µM (inactive) | GI50 (SK-MEL-5): 16 µM (inactive) | GI50 (PC-3): 29.1 µM (inactive) | GI50 (786-0): 33.3 µM (inactive) | GI50 (SW-620): 28.1 µM (inactive) | GI50 (HOP-92): 20.7 µM (inactive) | GI50 (LOX IMVI): 28.2 µM (inactive) | GI50 (TK-10): > 100 µM (inactive) | GI50 (OVCAR-3): 34.2 µM (inactive) | GI50 (U-251): 41.5 µM (inactive) | GI50 (CAKI-1): 39.4 µM (inactive) | GI50 (HL-60): 0.199 µM (active) | GI50 (NCI-H460): 98.2 µM (inactive) | GI50 (UACC-257): 50.1 µM (inactive) | GI50 (SK-MEL-28): 28.4 µM (inactive) | GI50 (SF-539): 17.1 µM (inactive) | GI50 (UO-31): 32.6 µM (inactive) | GI50 (RPMI-8226): 13.1 µM (inactive) | GI50 (ACHN): 29.9 µM (inactive) | GI50 (SK-OV-3): 56.5 µM (inactive) | GI50 (SR): 20.2 µM (inactive) | GI50 (HOP-62): 67.3 µM (inactive) | GI50 (NCI-H226): 14.1 µM (inactive) | GI50 (OVCAR-5): 41 µM (inactive) | GI50 (HT-29): 18.9 µM (inactive) | GI50 (K562): 20.5 µM (inactive) | GI50 (MDA-MB-435): 32.1 µM (inactive) | GI50 (OVCAR-8): 34 µM (inactive) | GI50 (MDA-MB-231): 52.1 µM (inactive) | GI50 (Malme-3M): 19 µM (inactive) | GI50 (CCRF-CEM): 14.1 µM (inactive) | GI50 (M14): 35.6 µM (inactive) | GI50 (SN12C): 78.3 µM (inactive) | GI50 (T47D): 20.5 µM (inactive) | GI50 (OVCAR-4): 24.7 µM (inactive) | GI50 (A549): 59 µM (inactive) | GI50 (MOLT-4): 15.3 µM (inactive) | GI50 (A498): > 100 µM (inactive) | GI50 (SF-295): 52.1 µM (inactive) | GI50 (SF-268): 38.9 µM (inactive) | GI50 (DU-145): 41.4 µM (inactive) | GI50 (MCF7): 33.2 µM (inactive) | GI50 (SNB-19): > 100 µM (inactive) | GI50 (IGROV-1): 31 µM (inactive) | GI50 (NCI/ADR-RES): 33 µM (inactive) | GI50 (HCT-15): 77.6 µM | GI50 (UACC-62): 3.15 µM (inactive) | GI50 (RXF 393): 19.9 µM (inactive) | GI50 (MDA-N): 45.1 µM (inactive) | GI50 (BT-549): 35 µM (inactive) | GI50 (SNB-75): 20.7 µM (inactive) | GI50 (KM12): 31.3 µM (inactive) | GI50 (HCT-116): 27.1 µM (inactive) | GI50 (Hs-578T): 56.1 µM (inactive)

CC(C)(C)OC(=O)CN1CCN(CC(=O)N2CCN(C(=O)OCc3ccccc3)CC2)CCN(CC(=O)OC(C)(C)C)CCN(CC(=O)N2CCN(C(=O)OCc3ccccc3)CC2)CC1
GI50 (COLO 205): 1.15 µM (inactive) | GI50 (NCI-H522): 0.785 µM (active) | GI50 (EKVX): 10.5 µM (inactive) | GI50 (HCC 2998): 1.69 µM (inactive) | GI50 (NCI-H23): 2.6 µM (inactive) | GI50 (SK-MEL-2): 1.82 µM (inactive) | GI50 (SK-MEL-5): 1.71 µM (inactive) | GI50 (PC-3): 2.51 µM (inactive) | GI50 (786-0): 2.21 µM (inactive) | GI50 (SW-620): 1.67 µM (inactive) | GI50 (HOP-92): 2.6 µM (inactive) | GI50 (LOX IMVI): 1.25 µM (inactive) | GI50 (TK-10): 5.92 µM (inactive) | GI50 (OVCAR-3): 2.83 µM (inactive) | GI50 (U-251): 1.7 µM (inactive) | GI50 (CAKI-1): 10.1 µM (inactive) | GI50 (HL-60): 0.225 µM (active) | GI50 (NCI-H460): 1.35 µM (inactive) | GI50 (UACC-257): 2.54 µM (inactive) | GI50 (SK-MEL-28): 4.93 µM (inactive) | GI50 (SF-539): 2.17 µM (inactive) | GI50 (UO-31): 12.7 µM (inactive) | GI50 (RPMI-8226): 0.942 µM (active) | GI50 (ACHN): 7.73 µM (inactive) | GI50 (SK-OV-3): 3.47 µM (inactive) | GI50 (SR): 0.407 µM (active) | GI50 (HOP-62): 3.7 µM (inactive) | GI50 (NCI-H226): 3.84 µM (inactive) | GI50 (OVCAR-5): 13.1 µM (inactive) | GI50 (HT-29): 0.318 µM (active) | GI50 (K562): 0.989 µM (active) | GI50 (MDA-MB-435): 2.13 µM (inactive) | GI50 (OVCAR-8): 2.83 µM (inactive) | GI50 (MDA-MB-231): 1.64 µM (inactive) | GI50 (Malme-3M): 2.33 µM (inactive) | GI50 (CCRF-CEM): 1.41 µM (inactive) | GI50 (M14): 3.21 µM (inactive) | GI50 (SN12C): 2.76 µM (inactive) | GI50 (T47D): 3.12 µM (inactive) | GI50 (OVCAR-4): 2.73 µM (inactive) | GI50 (A549): 3.27 µM (inactive) | GI50 (MOLT-4): 1.98 µM (inactive) | GI50 (A498): 15.4 µM (inactive) | GI50 (SF-295): 3.35 µM (inactive) | GI50 (SF-268): 2.48 µM (inactive) | GI50 (DU-145): 6.95 µM (inactive) | GI50 (MCF7): 2.35 µM (inactive) | GI50 (SNB-19): 3.48 µM (inactive) | GI50 (IGROV-1): 0.853 µM (active) | GI50 (NCI/ADR-RES): 14.3 µM (inactive) | GI50 (HCT-15): 6.15 µM | GI50 (UACC-62): 2.67 µM (inactive) | GI50 (RXF 393): 3.61 µM (inactive) | GI50 (MDA-N): 2.18 µM (inactive) | GI50 (BT-549): 3.94 µM (inactive) | GI50 (SNB-75): 1.35 µM (inactive) | GI50 (KM12): 1.42 µM (inactive) | GI50 (HCT-116): 3.11 µM (inactive) | GI50 (Hs-578T): 1.79 µM (inactive)
